Assay results reported in US6479435B1, “Diaryl ethers and processes for their preparation and herbicidal and desiccant compositions containing them” (ISK Americas Incorporated, priority 1997, dated 2002).

Assays:
Type in all cases: in vivo
[1] = test system: common ragweed (Ambrosia artemisiifolia L., AMBEL); assay: Post-emerge greenhouse herbicide test, phytotoxicity rating; conditions: 14 days after application
Method in brief: (§1)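 Plants at the 2-3 leaf stage, sown 8-21 days earlier, were track-sprayed post-emergence with compound in acetone plus 0.25% v/v non-ionic surfactant at 63-1000 g ai/ha (187 l/ha). Damage was rated at 14 days on a 0-100 scale (0 none, 100 all plants dead), for both crop injury and weed control.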

[2] = test system: field corn (Zea mays L., var. Dekalb 535, CORN); assay: Post-emerge greenhouse test, crop damage rating; conditions: 14 days after application
Method in brief: as §1

[3] = test system: upland rice (Oryza sp., var.Tebonnet, RICE); assay: Post-emerge greenhouse test, crop damage rating; conditions: 14 days after application
Method in brief: as §1

[4] = test system: green foxtail (Setaria viridis, SETVI); assay: Pre-emerge greenhouse herbicide test, phytotoxicity rating; conditions: 14 days after application, rating scale 0-100
Method in brief: (§2)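 Seeds sown in sandy loam one day before track-sprayer application of acetone solutions at 125–1000 g ai/ha (187 l/ha), then surface-watered to incorporate and bottom-watered. Injury scored visually at 14 days on a 0–100 scale (0 no damage, 100 complete death).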

[5] = test system: Johnsongrass (Sorghum halepense, SORHA); assay: as above; conditions: 14 days after application, rating scale 0-100
Method in brief: as §2

[6] = test system: barnyardgrass (Echinochloa crusgalli, ECHCG); assay: as above; conditions: 14 days after application, rating scale 0-100
Method in brief: as §2

[7] = test system: redroot pigweed (Amaranthus retroflexus, AMARE); assay: as above; conditions: 14 days after application, rating scale 0-100
Method in brief: as §2

[8] = test system: large crabgrass (Digitaria sanguinalis, DIGSA); assay: as above; conditions: 14 days after application, rating scale 0-100
Method in brief: as §2

[9] = test system: sicklepod (Cassia obtusifolia, CASOB); assay: as above; conditions: 14 days after application, rating scale 0-100
Method in brief: as §2

[10] = test system: ivyleaf morningglory (Ipomoea hederacea, IPOHE); assay: as above; conditions: 14 days after application, rating scale 0-100
Method in brief: as §2

[11] = test system: lambsquarters (Chenopodium album, CHEAL); assay: as above; conditions: 14 days after application, rating scale 0-100
Method in brief: as §2

[12] = test system: velvetleaf (Abutilon theophrasti, ABUTH); assay: as above; conditions: 14 days after application, rating scale 0-100
Method in brief: as §2

[13] = test system: common ragweed (Ambrosia artemisiifolia L., AMBEL); assay: as above; conditions: 14 days after application, rating scale 0-100
Method in brief: as §2

[14] = test system: soybean (Glycine max L., var. Pella 86, SOY); assay: Pre-emerge greenhouse test, crop damage rating; conditions: 14 days after application, rating scale 0-100
Method in brief: as §2

[15] = test system: field corn (Zea mays L., var. Dekalb 535, CORN); assay: Pre-emerge greenhouse test, crop damage rating; conditions: 14 days after application, rating scale 0-100
Method in brief: as §2

[16] = test system: upland rice (Oryza sp., var.Tebonnet, RICE); assay: Pre-emerge greenhouse test, crop damage rating; conditions: 14 days after application, rating scale 0-100
Method in brief: as §2

[17] = test system: green foxtail (Setaria viridis, SETVI); assay: Post-emerge greenhouse herbicide test, phytotoxicity rating; conditions: 14 days after application
Method in brief: as §1

[18] = test system: Johnsongrass (Sorghum halepense, SORHA); assay: as above; conditions: 14 days after application
Method in brief: as §1

[19] = test system: barnyardgrass (Echinochloa crusgalli, ECHCG); assay: as above; conditions: 14 days after application
Method in brief: as §1

[20] = test system: redroot pigweed (Amaranthus retroflexus, AMARE); assay: as above; conditions: 14 days after application
Method in brief: as §1

[21] = test system: large crabgrass (Digitaria sanguinalis, DIGSA); assay: as above; conditions: 14 days after application
Method in brief: as §1

[22] = test system: sicklepod (Cassia obtusifolia, CASOB); assay: as above; conditions: 14 days after application
Method in brief: as §1

[23] = test system: ivyleaf morningglory (Ipomoea hederacea, IPOHE); assay: as above; conditions: 14 days after application
Method in brief: as §1

[24] = test system: lambsquarters (Chenopodium album, CHEAL); assay: as above; conditions: 14 days after application
Method in brief: as §1

[25] = test system: velvetleaf (Abutilon theophrasti, ABUTH); assay: as above; conditions: 14 days after application
Method in brief: as §1

[26] = test system: soybean (Glycine max L., var. Pella 86, SOY); assay: Post-emerge greenhouse test, crop damage rating; conditions: 14 days after application
Method in brief: as §1

Cc1nn(-c2cc(Oc3ncccn3)c(Cl)cc2F)c(=O)n1C(F)F [Compound 3-1, 1-[4-chloro-2-fluoro-5-(2-pyrimidyloxy)phenyl]-4-difluoromethyl-3-methyl-1,4-dihydro-1,2,4-triazolin-5-one]
100: AMBEL phytotoxicity rating (0-100) ([1]; 500 g al/ha) | CORN crop damage rating (0-100) ([2]; 500 g al/ha) | RICE crop damage rating (0-100) ([3]; 500 g al/ha) | phytotoxicity rating SETVI ([4]; 125 g ai/ha) | phytotoxicity rating SETVI ([4]; 500 g ai/ha) | phytotoxicity rating SORHA ([5]; 125 g ai/ha) | phytotoxicity rating SORHA ([5]; 500 g ai/ha) | phytotoxicity rating ECHCG ([6]; 125 g ai/ha) | phytotoxicity rating ECHCG ([6]; 500 g ai/ha) | phytotoxicity rating AMARE ([7]; 125 g ai/ha) | phytotoxicity rating AMARE ([7]; 500 g ai/ha) | phytotoxicity rating DIGSA ([8]; 125 g ai/ha) | phytotoxicity rating DIGSA ([8]; 500 g ai/ha) | phytotoxicity rating CASOB ([9]; 125 g ai/ha) | phytotoxicity rating CASOB ([9]; 500 g ai/ha) | phytotoxicity rating IPOHE ([10]; 125 g ai/ha) | phytotoxicity rating IPOHE ([10]; 500 g ai/ha) | phytotoxicity rating CHEAL ([11]; 125 g ai/ha) | phytotoxicity rating CHEAL ([11]; 500 g ai/ha) | phytotoxicity rating ABUTH ([12]; 125 g ai/ha) | phytotoxicity rating ABUTH ([12]; 500 g ai/ha) | phytotoxicity rating AMBEL ([13]; 125 g ai/ha) | phytotoxicity rating AMBEL ([13]; 500 g ai/ha) | crop damage rating SOY ([14]; 500 g ai/ha) | crop damage rating CORN ([15]; 500 g ai/ha) | crop damage rating RICE ([16]; 500 g ai/ha) | SETVI phytotoxicity rating (0-100) ([17]; 500 g al/ha) | SORHA phytotoxicity rating (0-100) ([18]; 500 g al/ha) | ECHCG phytotoxicity rating (0-100) ([19]; 500 g al/ha) | AMARE phytotoxicity rating (0-100) ([20]; 500 g al/ha) | DIGSA phytotoxicity rating (0-100) ([21]; 500 g al/ha) | CASOB phytotoxicity rating (0-100) ([22]; 500 g al/ha) | IPOHE phytotoxicity rating (0-100) ([23]; 63 g al/ha) | IPOHE phytotoxicity rating (0-100) ([23]; 500 g al/ha) | CHEAL phytotoxicity rating (0-100) ([24]; 500 g al/ha) | ABUTH phytotoxicity rating (0-100) ([25]; 63 g al/ha) | ABUTH phytotoxicity rating (0-100) ([25]; 500 g al/ha) | SOY crop damage rating (0-100) ([26]; 63 g al/ha) | SOY crop damage rating (0-100) ([26]; 500 g al/ha)
25: CORN crop damage rating (0-100) ([2]; 63 g al/ha)
95: SETVI phytotoxicity rating (0-100) ([17]; 63 g al/ha) | AMARE phytotoxicity rating (0-100) ([20]; 63 g al/ha) | CHEAL phytotoxicity rating (0-100) ([24]; 63 g al/ha)
99: crop damage rating RICE ([16]; 125 g ai/ha)
70: AMBEL phytotoxicity rating (0-100) ([1]; 63 g al/ha) | RICE crop damage rating (0-100) ([3]; 63 g al/ha) | ECHCG phytotoxicity rating (0-100) ([19]; 63 g al/ha)
90: crop damage rating SOY ([14]; 125 g ai/ha) | crop damage rating CORN ([15]; 125 g ai/ha) | CASOB phytotoxicity rating (0-100) ([22]; 63 g al/ha)
80: SORHA phytotoxicity rating (0-100) ([18]; 63 g al/ha) | DIGSA phytotoxicity rating (0-100) ([21]; 63 g al/ha)

O=C1C2=CCCCN2C(=O)N1c1cc(Oc2ncccc2C(F)(F)F)c(Cl)cc1F [Compound 4-2]
0: phytotoxicity rating SORHA ([5]; 500 g ai/ha) | phytotoxicity rating ECHCG ([6]; 500 g ai/ha) | phytotoxicity rating DIGSA ([8]; 500 g ai/ha) | phytotoxicity rating CASOB ([9]; 500 g ai/ha) | phytotoxicity rating IPOHE ([10]; 500 g ai/ha) | crop damage rating SOY ([14]; 500 g ai/ha) | crop damage rating CORN ([15]; 500 g ai/ha) | crop damage rating RICE ([16]; 500 g ai/ha) | SORHA phytotoxicity rating (0-100) ([18]; 500 g al/ha) | ECHCG phytotoxicity rating (0-100) ([19]; 500 g al/ha) | DIGSA phytotoxicity rating (0-100) ([21]; 500 g al/ha)
90: CHEAL phytotoxicity rating (0-100) ([24]; 500 g al/ha)
40: phytotoxicity rating SETVI ([4]; 500 g ai/ha)
5: CORN crop damage rating (0-100) ([2]; 500 g al/ha)
75: AMBEL phytotoxicity rating (0-100) ([1]; 500 g al/ha)
10: RICE crop damage rating (0-100) ([3]; 500 g al/ha) | SETVI phytotoxicity rating (0-100) ([17]; 500 g al/ha)
70: ABUTH phytotoxicity rating (0-100) ([25]; 500 g al/ha)
30: SOY crop damage rating (0-100) ([26]; 500 g al/ha)
20: CASOB phytotoxicity rating (0-100) ([22]; 500 g al/ha)
95: phytotoxicity rating ABUTH ([12]; 500 g ai/ha)
100: phytotoxicity rating AMARE ([7]; 500 g ai/ha) | phytotoxicity rating CHEAL ([11]; 500 g ai/ha) | phytotoxicity rating AMBEL ([13]; 500 g ai/ha) | AMARE phytotoxicity rating (0-100) ([20]; 500 g al/ha)
99: IPOHE phytotoxicity rating (0-100) ([23]; 500 g al/ha)
